Reference: patent publication US20260125382A1, “COMPOUNDS FOR INHIBITING OR DEGRADING CDK2 AND/OR CDK9 AND MEDICINAL USE THEREOF” (KOREA RESEARCH INSTITUTE OF CHEMICAL TECHNOLOGY, priority 2022, published 2026)

What was measured:
CDK2 = biological target: T1, CDK2 (Homo sapiens, UniProt P24941); experiment: CDK protein degradation activity (Western blotting), CDK2; assay type: cell-based; conditions: MDA-MB-231 cells, 16 hours, Western blot
T1 construct: endogenous in cells; host or cells: MDA-MB-231
In short: (§1)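 MDA-MB-231; cmpd 100 nM / 1 μM / 10 μM final vs DMSO, 16 h. Triton X-100 lysates (pH 7.5, phosphatase/protease inhibitors) → SDS-PAGE → Western blot, anti-CDK2, anti-CDK9, tubulin loading control; densitometry.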

CDK9 = biological target: T2, CDK9 (Homo sapiens, UniProt P50750); experiment: CDK protein degradation activity (Western blotting), CDK9; assay type: cell-based; conditions: MDA-MB-231 cells, 16 hours, Western blot
T2 construct: endogenous in cells; host or cells: MDA-MB-231
In short: as §1

T2 sequence (P50750 whole entry): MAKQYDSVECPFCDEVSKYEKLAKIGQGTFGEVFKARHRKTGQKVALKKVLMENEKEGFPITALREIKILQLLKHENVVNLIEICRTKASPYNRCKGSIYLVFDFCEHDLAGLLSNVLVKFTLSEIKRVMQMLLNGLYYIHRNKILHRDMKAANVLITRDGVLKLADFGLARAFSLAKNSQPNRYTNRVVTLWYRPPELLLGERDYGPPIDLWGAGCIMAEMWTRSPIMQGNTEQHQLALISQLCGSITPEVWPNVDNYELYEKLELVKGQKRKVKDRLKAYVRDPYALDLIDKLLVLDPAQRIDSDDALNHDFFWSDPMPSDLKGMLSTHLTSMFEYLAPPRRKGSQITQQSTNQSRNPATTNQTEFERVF

O=C1CC[C@H](N2C(=O)c3cccc(N4CCC(CN5CCC(c6ccc(Nc7ncnc8c7ncn8C7CC(NC(=O)Cc8ccccc8)C7)cc6)CC5)CC4)c3C2=O)C(=O)N1 (stereo partly drawn) [Compound 291, N-((1s,3s)-3-(6-((4-(1-((1-(2-(2,6-dioxopiperidin-3-yl)-1,3-dioxoisoindolin-4-yl)piperidin-4-yl)methyl)piperidin-4-yl)phenyl)amino)-9H-purin-9-yl)cyclobutyl)-2-phenylacetamide]
Enzyme degradation CDK2 (% remaining) @ 0.1 μM (CDK2): 20/20/20%
Enzyme degradation CDK2 (% remaining) @ 1 μM (CDK2): 20/20/20%
Enzyme degradation CDK2 (% remaining) @ 10 μM (CDK2): 20/20/20%
Enzyme degradation CDK9 (% remaining) @ 0.1 μM (CDK9): 20%
Enzyme degradation CDK9 (% remaining) @ 1 μM (CDK9): 0%
Enzyme degradation CDK9 (% remaining) @ 10 μM (CDK9): 0%

O=C1CC[C@H](N2C(=O)c3ccc(N4CCC(CN5CCC(c6ccc(Nc7ncnc8c7ncn8[C@H]7C[C@@H](NC(=O)Cc8ccccc8)C7)cc6)CC5)CC4)cc3C2=O)C(=O)N1 [Compound 292, N-((1s,3s)-3-(6-((4-(1-((1-(2-(2,6-dioxopiperidin-3-yl)-1,3-dioxoisoindolin-5-yl)piperidin-4-yl)methyl)piperidin-4-yl)phenyl)amino)-9H-purin-9-yl)cyclobutyl)-2-phenylacetamide]
Enzyme degradation CDK2 (% remaining) @ 0.1 μM (CDK2): 10/10/10%
Enzyme degradation CDK2 (% remaining) @ 1 μM (CDK2): 10/10/10%
Enzyme degradation CDK2 (% remaining) @ 10 μM (CDK2): 10/10/10%
Enzyme degradation CDK9 (% remaining) @ 0.1 μM (CDK9): 10%
Enzyme degradation CDK9 (% remaining) @ 1 μM (CDK9): 0%
Enzyme degradation CDK9 (% remaining) @ 10 μM (CDK9): 0%

O=C1CCC(N2C(=O)c3cccc(OCC(=O)N4CCC5(CC4)CC(N4CCC(c6ccc(Nc7ncnc8c7ncn8[C@H]7C[C@@H](NC(=O)Cc8ccccc8)C7)cc6)CC4)C5)c3C2=O)C(=O)N1 (stereo partly drawn) [Compound 293, N-((1s,3s)-3-(6-((4-(1-(7-(2-((2-(2,6-dioxopiperidin-3-yl)-1,3-dioxoisoindolin-4-yl)oxy)acetyl)-7-azaspiro[3.5]nonan-2-yl)piperidin-4-yl)phenyl)amino)-9H-purin-9-yl)cyclobutyl)-2-phenylacetamide]
Enzyme degradation CDK2 (% remaining) @ 0.1 μM (CDK2): 0/0/0%
Enzyme degradation CDK2 (% remaining) @ 1 μM (CDK2): 0/0/0%
Enzyme degradation CDK2 (% remaining) @ 10 μM (CDK2): 0/0/0%
Enzyme degradation CDK9 (% remaining) @ 0.1 μM (CDK9): 0/0/0%
Enzyme degradation CDK9 (% remaining) @ 1 μM (CDK9): 0/0/0%
Enzyme degradation CDK9 (% remaining) @ 10 μM (CDK9): 0/0/0%

O=C1CCC(N2C(=O)c3cccc(NCC(=O)N4CCC5(CC4)CC(N4CCC(c6ccc(Nc7ncnc8c7ncn8[C@H]7C[C@@H](NC(=O)Cc8ccccc8)C7)cc6)CC4)C5)c3C2=O)C(=O)N1 (stereo partly drawn) [Compound 294, N-((1s,3s)-3-(6-((4-(1-(7-((2-(2,6-dioxopiperidin-3-yl)-1,3-dioxoisoindolin-4-yl)glycyl)-7-azaspiro[3.5]nonan-2-yl)piperidin-4-yl)phenyl)amino)-9H-purin-9-yl)cyclobutyl)-2-phenylacetamide]
Enzyme degradation CDK2 (% remaining) @ 0.1 μM (CDK2): 10/10/10%
Enzyme degradation CDK2 (% remaining) @ 1 μM (CDK2): 10/10/10%
Enzyme degradation CDK2 (% remaining) @ 10 μM (CDK2): 10/10/10%
Enzyme degradation CDK9 (% remaining) @ 0.1 μM (CDK9): 0/0/0%
Enzyme degradation CDK9 (% remaining) @ 1 μM (CDK9): 0/0/0%
Enzyme degradation CDK9 (% remaining) @ 10 μM (CDK9): 0/0/0%

O=C1CC[C@H](N2C(=O)c3ccc(OCC(=O)N4CCC5(CC4)CC(N4CCC(c6ccc(Nc7ncnc8c7ncn8[C@H]7C[C@@H](NC(=O)Cc8ccccc8)C7)cc6)CC4)C5)cc3C2=O)C(=O)N1 [Compound 295, N-((1s,3s)-3-(6-((4-(1-(7-(2-((2-(2,6-dioxopiperidin-3-yl)-1,3-dioxoisoindolin-5-yl)oxy)acetyl)-7-azaspiro[3.5]nonan-2-yl)piperidin-4-yl)phenyl)amino)-9H-purin-9-yl)cyclobutyl)-2-phenylacetamide]
Enzyme degradation CDK2 (% remaining) @ 0.1 μM (CDK2): 20/20/20%
Enzyme degradation CDK2 (% remaining) @ 1 μM (CDK2): 20/20/20%
Enzyme degradation CDK2 (% remaining) @ 10 μM (CDK2): 20/20/20%
Enzyme degradation CDK9 (% remaining) @ 0.1 μM (CDK9): 0/0/0%
Enzyme degradation CDK9 (% remaining) @ 1 μM (CDK9): 0/0/0%
Enzyme degradation CDK9 (% remaining) @ 10 μM (CDK9): 0/0/0%

O=C1CC[C@H](N2C(=O)c3cccc(N4CCC5(CC4)CC(N4CCC(c6ccc(Nc7ncnc8c7ncn8C7CC(NC(=O)Cc8ccccc8)C7)cc6)CC4)C5)c3C2=O)C(=O)N1 (stereo partly drawn) [Compound 297, N-((1s,3s)-3-(6-((4-(1-(7-(2-(2,6-dioxopiperidin-3-yl)-1,3-dioxoisoindolin-4-yl)-7-azaspiro[3.5]nonan-2-yl)piperidin-4-yl)phenyl)amino)-9H-purin-9-yl)cyclobutyl)-2-phenylacetamide]
Enzyme degradation CDK2 (% remaining) @ 0.1 μM (CDK2): 20%
Enzyme degradation CDK2 (% remaining) @ 1 μM (CDK2): 40%
Enzyme degradation CDK2 (% remaining) @ 10 μM (CDK2): 40%
Enzyme degradation CDK9 (% remaining) @ 0.1 μM (CDK9): 10%
Enzyme degradation CDK9 (% remaining) @ 1 μM (CDK9): 0%
Enzyme degradation CDK9 (% remaining) @ 10 μM (CDK9): 0%

O=C1CC[C@H](N2C(=O)c3ccc(N4CCC5(CC4)CC(N4CCC(c6ccc(Nc7ncnc8c7ncn8[C@H]7C[C@@H](NC(=O)Cc8ccccc8)C7)cc6)CC4)C5)cc3C2=O)C(=O)N1 [Compound 298, N-((1s,3s)-3-(6-((4-(1-(7-(2-(2,6-dioxopiperidin-3-yl)-1,3-dioxoisoindolin-5-yl)-7-azaspiro[3.5]nonan-2-yl)piperidin-4-yl)phenyl)amino)-9H-purin-9-yl)cyclobutyl)-2-phenylacetamide]
Enzyme degradation CDK2 (% remaining) @ 0.1 μM (CDK2): 10/10/10%
Enzyme degradation CDK2 (% remaining) @ 1 μM (CDK2): 10/10/10%
Enzyme degradation CDK2 (% remaining) @ 10 μM (CDK2): 10/10/10%
Enzyme degradation CDK9 (% remaining) @ 0.1 μM (CDK9): 10%
Enzyme degradation CDK9 (% remaining) @ 1 μM (CDK9): 0%
Enzyme degradation CDK9 (% remaining) @ 10 μM (CDK9): 0%

O=C1CC[C@H](N2C(=O)c3cc(F)c(N4CCC(CN5CCN(c6ccc(Nc7ncnc8c7ncn8C7CC(NC(=O)c8c(Cl)cccc8Cl)C7)cc6)CC5)CC4)cc3C2=O)C(=O)N1 (stereo partly drawn) [Compound 299, 2,6-dichloro-N-((1s,3s)-3-(6-((4-(4-((1-(2-(2,6-dioxopiperidin-3-yl)-6-fluoro-1,3-dioxoisoindolin-5-yl)piperidin-4-yl)methyl)piperazin-1-yl)phenyl)amino)-9H-purin-9-yl)cyclobutyl)benzamide]
Enzyme degradation CDK2 (% remaining) @ 0.1 μM (CDK2): 30/30/30%
Enzyme degradation CDK2 (% remaining) @ 1 μM (CDK2): 30/30/30%
Enzyme degradation CDK2 (% remaining) @ 10 μM (CDK2): 30/30/30%
Enzyme degradation CDK9 (% remaining) @ 0.1 μM (CDK9): 0/0/0%
Enzyme degradation CDK9 (% remaining) @ 1 μM (CDK9): 0/0/0%
Enzyme degradation CDK9 (% remaining) @ 10 μM (CDK9): 0/0/0%

O=C1CC[C@H](N2C(=O)c3ccc(N4CCN(CC5CCN(c6ccc(Nc7ncnc8c7ncn8[C@H]7C[C@@H](NC(=O)c8c(Cl)cccc8Cl)C7)cc6)CC5)CC4)cc3C2=O)C(=O)N1 [Compound 300, 2,6-dichloro-N-((1s,3s)-3-(6-((4-(4-((4-(2-(2,6-dioxopiperidin-3-yl)-1,3-dioxoisoindolin-5-yl)piperazin-1-yl)methyl)piperidin-1-yl)phenyl)amino)-9H-purin-9-yl)cyclobutyl)benzamide]
Enzyme degradation CDK2 (% remaining) @ 0.1 μM (CDK2): 10/10/10%
Enzyme degradation CDK2 (% remaining) @ 1 μM (CDK2): 10/10/10%
Enzyme degradation CDK2 (% remaining) @ 10 μM (CDK2): 10/10/10%
Enzyme degradation CDK9 (% remaining) @ 0.1 μM (CDK9): 10%
Enzyme degradation CDK9 (% remaining) @ 1 μM (CDK9): 0%
Enzyme degradation CDK9 (% remaining) @ 10 μM (CDK9): 0%

O=C1CC[C@H](N2C(=O)c3cc(F)c(N4CCN(CC5CCN(c6ccc(Nc7ncnc8c7ncn8C7CC(NC(=O)c8c(Cl)cccc8Cl)C7)cc6)CC5)CC4)cc3C2=O)C(=O)N1 (stereo partly drawn) [Compound 301, 2,6-dichloro-N-((1s,3s)-3-(6-((4-(4-((4-(2-(2,6-dioxopiperidin-3-yl)-6-fluoro-1,3-dioxoisoindolin-5-yl)piperazin-1-yl)methyl)piperidin-1-yl)phenyl)amino)-9H-purin-9-yl)cyclobutyl)benzamide]
Enzyme degradation CDK2 (% remaining) @ 0.1 μM (CDK2): 30%
Enzyme degradation CDK2 (% remaining) @ 1 μM (CDK2): 20%
Enzyme degradation CDK2 (% remaining) @ 10 μM (CDK2): 10%
Enzyme degradation CDK9 (% remaining) @ 0.1 μM (CDK9): 70%
Enzyme degradation CDK9 (% remaining) @ 1 μM (CDK9): 0%
Enzyme degradation CDK9 (% remaining) @ 10 μM (CDK9): 0%

Cc1cccc(C(=O)NC2CC(n3cnc4c(NCCC5CCN(CC6CCN(c7ccc8nnn([C@H]9CCC(=O)NC9=O)c(=O)c8c7)CC6)CC5)ncnc43)C2)n1 (stereo partly drawn) [Compound 304, N-((1s,3s)-3-(6-((2-(1-((1-(3-(2,6-dioxopiperidin-3-yl)-4-oxo-3,4-dihydrobenzo[d][1,2,3]triazin-6-yl)piperidin-4-yl)methyl)piperidin-4-yl)ethyl)amino)-9H-purin-9-yl)cyclobutyl)-6-methylpicolinamide]
Enzyme degradation CDK2 (% remaining) @ 0.1 μM (CDK2): 20%
Enzyme degradation CDK2 (% remaining) @ 1 μM (CDK2): 30%
Enzyme degradation CDK2 (% remaining) @ 10 μM (CDK2): 50%
Enzyme degradation CDK9 (% remaining) @ 0.1 μM (CDK9): 20%
Enzyme degradation CDK9 (% remaining) @ 1 μM (CDK9): 0%
Enzyme degradation CDK9 (% remaining) @ 10 μM (CDK9): 0%

Cc1cccc(C(=O)NC2CC(n3cnc4c(NCCC5CCN(CC6CCN(c7cccc8c7C(=O)N([C@H]7CCC(=O)NC7=O)C8=O)CC6)CC5)ncnc43)C2)n1 (stereo partly drawn) [Compound 306, N-((1s,3s)-3-(6-((2-(1-((1-(2-(2,6-dioxopiperidin-3-yl)-1,3-dioxoisoindolin-4-yl)piperidin-4-yl)methyl)piperidin-4-yl)ethyl)amino)-9H-purin-9-yl)cyclobutyl)-6-methylpicolinamide]
Enzyme degradation CDK2 (% remaining) @ 0.1 μM (CDK2): 100/100/100%
Enzyme degradation CDK2 (% remaining) @ 1 μM (CDK2): 100/100/100%
Enzyme degradation CDK2 (% remaining) @ 10 μM (CDK2): 100/100/100%
Enzyme degradation CDK9 (% remaining) @ 0.1 μM (CDK9): 30%
Enzyme degradation CDK9 (% remaining) @ 1 μM (CDK9): 0%
Enzyme degradation CDK9 (% remaining) @ 10 μM (CDK9): 10%

O=C1CC[C@H](n2nnc3ccc(N4CCC(CN5CCN(c6ccc(Nc7ncnc8c7ncn8C7CC(NC(=O)Cc8ccccc8)C7)cc6)CC5)CC4)cc3c2=O)C(=O)N1 (stereo partly drawn) [Compound 307, N-((1s,3s)-3-(6-((4-(4-((1-(3-(2,6-dioxopiperidin-3-yl)-4-oxo-3,4-dihydrobenzo[d][1,2,3]triazin-6-yl)piperidin-4-yl)methyl)piperazin-1-yl)phenyl)amino)-9H-purin-9-yl)cyclobutyl)-2-phenylacetamide]
Enzyme degradation CDK2 (% remaining) @ 0.1 μM (CDK2): 0/0/0%
Enzyme degradation CDK2 (% remaining) @ 1 μM (CDK2): 0/0/0%
Enzyme degradation CDK2 (% remaining) @ 10 μM (CDK2): 0/0/0%
Enzyme degradation CDK9 (% remaining) @ 0.1 μM (CDK9): 0/0/0%
Enzyme degradation CDK9 (% remaining) @ 1 μM (CDK9): 0/0/0%
Enzyme degradation CDK9 (% remaining) @ 10 μM (CDK9): 0/0/0%
